In ChEMBL document CHEMBL1201862, “PubChem BioAssay data set” (2004):
Active and inactive are the calls of the source.

Experiments:
[1] = biological target: T1, Corticotropin-releasing factor receptor 2/Corticotropin-releasing factor-binding protein (Homo sapiens, UniProt P24387+Q13324); test: Dose Response confirmation of uHTS hits for small molecule antagonists of the CRF-binding protein and CRF-R2 receptor complex.; assay type: functional; conditions: read-out: IC50_Mean
T1 sequence (Q13324 whole entry): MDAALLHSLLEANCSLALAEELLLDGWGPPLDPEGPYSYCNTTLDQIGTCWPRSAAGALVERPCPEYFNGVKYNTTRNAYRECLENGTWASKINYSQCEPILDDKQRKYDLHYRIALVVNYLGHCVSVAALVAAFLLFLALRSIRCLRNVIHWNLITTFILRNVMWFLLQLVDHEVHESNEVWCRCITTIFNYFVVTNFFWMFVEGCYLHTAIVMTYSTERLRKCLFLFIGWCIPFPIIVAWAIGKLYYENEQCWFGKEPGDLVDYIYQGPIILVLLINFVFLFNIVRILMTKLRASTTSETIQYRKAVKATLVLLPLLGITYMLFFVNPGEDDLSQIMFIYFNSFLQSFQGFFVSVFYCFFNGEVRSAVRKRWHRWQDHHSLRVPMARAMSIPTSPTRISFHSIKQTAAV
T1 sequence (P24387 whole entry): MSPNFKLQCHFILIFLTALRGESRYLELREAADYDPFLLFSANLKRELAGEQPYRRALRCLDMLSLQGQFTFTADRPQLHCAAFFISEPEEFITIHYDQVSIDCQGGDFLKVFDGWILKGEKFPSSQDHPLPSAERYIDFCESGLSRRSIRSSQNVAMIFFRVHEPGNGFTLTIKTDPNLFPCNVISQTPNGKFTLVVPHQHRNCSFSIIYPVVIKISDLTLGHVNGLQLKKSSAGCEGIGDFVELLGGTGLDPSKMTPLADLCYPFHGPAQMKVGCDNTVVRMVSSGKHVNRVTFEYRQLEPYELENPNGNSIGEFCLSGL

[2] = biological target: T1, Corticotropin-releasing factor receptor 2/Corticotropin-releasing factor-binding protein; test: activators of CRF receptor 2 with binding protein – uHTS hits, confirmation (AID 602473); assay type: functional; conditions: read-out: EC50_Mean
[3] = CRF-BP/CRF-R2 complex antagonists, dose response, cell-based, uHTS hits, 384-well (AID 651639); assay type: functional, Homo sapiens; conditions: read-out: IC50_Mean
Cytochrome P450 2D6 = Cytochrome P450 2D6 (Homo sapiens, UniProt P10635);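 also: CYP2D6 member of a cytochrome P450 panel assay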
Cytochrome P450 2D6, sequence (P10635 whole entry): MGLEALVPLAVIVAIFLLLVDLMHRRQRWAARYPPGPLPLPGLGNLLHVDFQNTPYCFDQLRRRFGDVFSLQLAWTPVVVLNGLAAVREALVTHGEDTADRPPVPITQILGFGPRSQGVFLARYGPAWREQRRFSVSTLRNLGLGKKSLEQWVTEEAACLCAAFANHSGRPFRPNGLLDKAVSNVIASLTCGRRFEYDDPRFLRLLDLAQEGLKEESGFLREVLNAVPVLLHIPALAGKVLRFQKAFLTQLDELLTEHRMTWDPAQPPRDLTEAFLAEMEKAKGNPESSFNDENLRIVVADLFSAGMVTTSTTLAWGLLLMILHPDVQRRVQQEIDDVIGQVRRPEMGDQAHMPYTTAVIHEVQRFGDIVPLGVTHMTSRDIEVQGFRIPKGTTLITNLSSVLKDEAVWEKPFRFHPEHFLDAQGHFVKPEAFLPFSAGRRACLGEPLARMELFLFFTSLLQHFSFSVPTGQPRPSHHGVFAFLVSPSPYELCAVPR

Cytochrome P450 2C9 = Cytochrome P450 2C9 (Homo sapiens, UniProt P11712)
Cytochrome P450 2C9, sequence (P11712 whole entry): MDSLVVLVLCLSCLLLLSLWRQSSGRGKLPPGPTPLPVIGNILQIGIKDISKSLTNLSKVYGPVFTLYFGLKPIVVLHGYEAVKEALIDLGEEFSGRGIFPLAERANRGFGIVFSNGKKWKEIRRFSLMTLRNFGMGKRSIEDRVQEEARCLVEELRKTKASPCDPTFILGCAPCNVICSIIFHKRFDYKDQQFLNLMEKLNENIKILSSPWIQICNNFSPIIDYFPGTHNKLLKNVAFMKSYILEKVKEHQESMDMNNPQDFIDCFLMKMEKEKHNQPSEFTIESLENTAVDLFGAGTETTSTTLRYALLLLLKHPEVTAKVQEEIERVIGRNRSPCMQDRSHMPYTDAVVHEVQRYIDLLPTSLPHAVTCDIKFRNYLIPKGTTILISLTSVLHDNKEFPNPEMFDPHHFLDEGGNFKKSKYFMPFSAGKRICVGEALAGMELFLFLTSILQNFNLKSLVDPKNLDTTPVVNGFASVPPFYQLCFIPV

[4] = biological target: T2, Adenosylmethionine-8-amino-7-oxononanoate aminotransferase (Mycobacterium tuberculosis, UniProt P9WQ81); test: Mycobacterium tuberculosis BioA enzyme inhibitor Measured in Biochemical System Using Plate Reader - 2163-02_Inhibitor_Dose_CherryPick_Activity.; assay type: functional, Mycobacterium tuberculosis UT205
T2 sequence (P9WQ81 whole entry): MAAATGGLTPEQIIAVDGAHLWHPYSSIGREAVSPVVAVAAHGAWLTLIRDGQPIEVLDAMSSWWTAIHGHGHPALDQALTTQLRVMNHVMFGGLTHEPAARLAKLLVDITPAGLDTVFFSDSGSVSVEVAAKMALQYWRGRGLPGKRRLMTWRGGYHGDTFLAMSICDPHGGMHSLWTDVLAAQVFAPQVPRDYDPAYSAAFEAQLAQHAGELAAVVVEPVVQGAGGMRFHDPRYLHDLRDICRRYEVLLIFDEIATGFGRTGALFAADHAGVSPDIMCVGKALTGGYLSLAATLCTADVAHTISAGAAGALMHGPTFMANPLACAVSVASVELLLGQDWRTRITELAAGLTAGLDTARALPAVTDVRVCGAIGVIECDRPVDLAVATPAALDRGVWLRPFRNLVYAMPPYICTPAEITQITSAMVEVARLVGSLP

[5] = Luminescence Cell-Based Dose Retest to Confirm Inhibitors of Cancer Stem Cells. [Related pubchem assays (depositor defined):AID2717, AID2721]; assay type: functional; conditions: Homo sapiens
[6] = biological target: T3, Long-chain-fatty-acid--AMP ligase FadD28 (Mycobacterium tuberculosis, UniProt P9WQ59); test: Fluorescence polarization aasay to screen for inhibitors that compete for the binding of FadD28 to a bisubstrate Measured in Biochemical System Using Plate Reader - 2147-01_Inhibitor_Dose_CherryPick_Activity.; assay type: functional, Mycobacterium tuberculosis H37Rv
T3 sequence (P9WQ59 whole entry): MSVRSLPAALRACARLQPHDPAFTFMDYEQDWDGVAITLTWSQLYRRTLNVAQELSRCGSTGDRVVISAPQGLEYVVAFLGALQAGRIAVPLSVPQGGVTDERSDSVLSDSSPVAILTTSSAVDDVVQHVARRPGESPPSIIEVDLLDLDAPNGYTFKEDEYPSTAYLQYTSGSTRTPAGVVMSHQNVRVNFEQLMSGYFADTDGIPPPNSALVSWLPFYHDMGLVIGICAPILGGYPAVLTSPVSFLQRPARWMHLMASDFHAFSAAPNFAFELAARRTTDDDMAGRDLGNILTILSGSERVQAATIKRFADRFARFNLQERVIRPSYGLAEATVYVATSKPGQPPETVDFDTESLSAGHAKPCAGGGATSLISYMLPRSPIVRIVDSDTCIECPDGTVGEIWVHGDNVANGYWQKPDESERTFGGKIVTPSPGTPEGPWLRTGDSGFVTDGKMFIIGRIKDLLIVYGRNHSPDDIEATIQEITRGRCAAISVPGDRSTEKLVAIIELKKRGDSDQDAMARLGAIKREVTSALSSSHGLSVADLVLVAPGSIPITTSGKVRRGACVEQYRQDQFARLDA

BJ [7] = test: cytotoxicity toward BJ-TERT fibroblasts, dose response, cell-based, RAS-independent, luminescence (AID 1933); assay type: functional; conditions: Homo sapiens
BJ [8] = test: cells; assay type: functional, cell-based; conditions: Homo sapiens
BJ [9] = test: cytotoxicity toward BJ-TERT-LT-ST fibroblasts, dose response, cell-based, RAS-independent, luminescence (AID 1935); assay type: functional; conditions: Homo sapiens;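 also: BJ fibroblasts immortalized with TERT plus LT and ST oncogenes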
[10] = cytotoxicity toward DRD oncogenic fibroblasts, dose response, cell-based, non-viral oncogenic, luminescence (AID 1934); assay type: functional; conditions: Homo sapiens
BJ [11] = test: cytotoxicity toward Ras-transformed BJeLR fibroblasts, dose response, cell-based, alamar blue fluorescence, cherrypicked samples (AID 2631); assay type: functional; conditions: Homo sapiens;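 also: confirmatory dose-response assay in RAS-dependent BJ fibroblasts engineered with TERT, LT and ST, with cytotoxicity read by fluorescence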
[12] = THP-1 cell cytotoxicity, dose response, cytotoxicity control for Vif-APOBEC3G degradation inhibitor project, THP-1 cells (AID 1117359); assay type: functional; conditions: Human immunodeficiency virus 1, THP-1

In the case of Cc1nc(Sc2ccccc2)c(C#N)cc1-c1ccccc1, the IC50 [1] was < 0.368 µM (active), the EC50 [2] was > 53 µM (inactive) and the IC50 [3] was > 20 µM (inactive).

For N#Cc1cccc(C(c2nnnn2C2CCCC2)N2CCCCCC2)c1 (stereo unspecified), the IC50 [1] was 20.7 µM (active), the EC50 [2] was > 53 µM (inactive) and the IC50 [3] was > 20 µM (inactive). The AC50 (Cytochrome P450 2D6) was 11.2 µM (inconclusive) and the AC50 (Cytochrome P450 2C9) was 35.5 µM (inconclusive).

With COc1cc(C(=O)Nc2cccnc2)cc(OC)c1OC the AC50 [4] was 2.14 µM (active).

With COC(=O)c1cc(OC)c(OC)cc1NC(=O)c1c(-c2ccccc2)noc1C the IC50 [1] was 16.2 µM (active), the EC50 [2] was > 53 µM (inactive) and the IC50 [3] was 1.87 µM (active).

In the case of CC(=O)N1CC[C@@H]2[C@@H](CO)N(C)c3ccc(-c4cccc(F)c4)cc3[C@@H]21, the AC50 [4] was 0.832 µM (active).

With CC1=NN(c2nc(-c3ccc(F)cc3)cs2)C(=O)C1 the AC50 [5] was 7.23 µM (active) and the AC50 [6] was 32 µM (inactive).

For COc1ccc(C)cc1Nc1c2c(nc3ccccc13)CCC2, the EC50 (BJ [7]) was 3.98 µM (inconclusive), the EC50 (BJ [8]) was 15.1 µM (inconclusive) and the EC50 (BJ [9]) was 1 µM (inconclusive). The EC50 [10] was 7.71 µM (inconclusive), the EC50 (BJ [11]) was 0.174 µM (active) and the CC50 [12] was 0.62 µM (active).
